Measured values from patent publication US12390455B2, “EZH1/2 dual inhibitor-containing pharmaceutical composition to be used as a combination drug” (DAIICHI SANKYO COMPANY, LIMITED, priority 2018, dated 2025).

Columns and labels:
Assay in all cases: Cell growth inhibitory activity, Compound A alone and combined with a second medical agent (CellTiter-Glo)
[1] = test system: MV-4-11; format: cell-based, human; details: MV-4-11, AML, MLL-AF4, FLT3-ITD; 7 days culture then 3 days in assay plate
Method: (§1) Cell strains listed in Table 1 and Table 2 were seeded in cell culture plates (for example, 6-well culture plates). DMSO solutions of Compound A diluted to different concentrations or DMSO alone were added such that the concentration of the solvent was 0.1%. The cells were cultured for 7 days. During the culturing, at intervals of about 3 days or 4 days depending on cell proliferation, subculturing was appropriately carried out. In the subculturing, DMSO solutions of Compound A diluted to different concentrations or DMSO alone were added to fresh medium at the same concentration as in initiation of the study. […]
(§2) During the culturing period, the culture conditions were 37° C. and 5% CO2. […] Thereafter, the amount of light emitted from each of the wells was measured by a plate reader (EnVision, PerkinElmer Co., Ltd.). Based on the luminescence of the sample addition group (TS) and the DMSO addition group (CS) for each treatment condition measured on the day of seeding; and the luminescence of the sample addition group (T) and the DMSO addition group (C) for each treatment condition measured on the day of evaluation, the cell growth inhibition rate was calculated in accordance with the following expression: Cell growth inhibition rate %={1−(T−TS)/(C−CS)}×100 […]

[2] = test system: KARPAS-422; format: cell-based, human; details: KARPAS-422, DLBCL (GCB), EZH2 MT (Y641N); 7 days culture then 3 days in assay plate
Method: as §1, §2

[3] = test system: MOLM14; format: cell-based; details: MOLM14, AML, MLL-AF9, FLT3-ITD; 7 days culture then 3 days in assay plate
Method: (§3) Cell strains listed in Table 1 and Table 2 were seeded in cell culture plates (for example, 6-well culture plates). DMSO solutions of Compound A diluted to different concentrations or DMSO alone were added such that the concentration of the solvent was 0.1%. The cells were cultured for 7 days. During the culturing, at intervals of about 3 days or 4 days depending on cell proliferation, subculturing was appropriately carried out. In the subculturing, DMSO solutions of Compound A diluted to different concentrations or DMSO alone were added to fresh medium at the same concentration as in initiation of the study.
(§4) The cell strains cultured in the above conditions were seeded in 96-well assay plates and the cells were cultured under a combination of the following conditions: • (i) DMSO solutions of Compound A diluted to different concentrations or DMSO alone were added such that the concentration of the solvent was 0.1%, and • (ii) DMSO solutions of a second medical agent or DMSO alone (if a preparation of a second medical agent was used, the preparation of the second medical agent was diluted with saline and used, or saline alone was used) was added such that the concentration of the solvent was 0.1%.
(§5) During the culturing period, the culture conditions were 37° C. and 5% CO2. On the day when the cells were seeded in a 96-well assay plate (day of seeding) and 3 days later (day of evaluation), a reaction was carried out using CellTiter-Glo 2.0 Assay reagent (Promega KK., #G9241) in accordance with the manual attached thereto. Thereafter, the amount of light emitted from each of the wells was measured by a plate reader (EnVision, PerkinElmer Co., Ltd.). Based on the luminescence of the sample addition group (TS) and the DMSO addition group (CS) for each treatment condition measured on the day of seeding; and the luminescence of the sample addition group (T) and the DMSO addition group (C) for each treatment condition measured on the day of evaluation, the cell growth inhibition rate was calculated in accordance with the following expression: Cell growth inhibition rate %={1−(T−TS)/(C−CS)}×100
(§6) Note that, if the number of cells of a sample addition group on the day of evaluation was lower than that of the day of seeding (T<TS), the cell-killing effect was calculated in accordance with the following expression: Cell-killing rate %=(T−TS)/TS×(−100)
(§7) The cell growth inhibition rate and cell killing rate obtained by calculation were fitted to the Sigmoid Emax model to calculate 100% cell growth inhibitory concentration of each of Compound A alone, a second medical agent alone, and Compound A-second medical agent combinations at different concentrations.
(§8) Based on the 100% cell growth inhibitory concentrations (Compound A alone: D1, second medical agent alone: D2, Compound A when used in combination: d1, second medical agent when used in combination: d2) calculated, the combination index (CI) was calculated in accordance with the following expression: CI=d1/D1+d2/D2 Determination was based on the criteria: if CI<1, a synergetic effect is present; if CI=1, an additive effect is present; and if CI>1, an antagonist effect is present (refer to Adv. Enzyme Regul. 1984, p. 2227-55).

[4] = test system: REC-1; format: cell-based; details: REC-1, MCL, EZH2 WT; 7 days culture then 3 days in assay plate
Method: as §3, §4, §5, §6, §7, §8

[5] = test system: OCI-AML3; format: cell-based; details: OCI-AML3, AML, NPM1mt, DNMT3Amt; 7 days culture then 3 days in assay plate
Method: as §3, §4, §5, §6, §7, §8

[6] = test system: DOHH-2; format: cell-based; details: DOHH-2, DLBCL (GCB), EZH2 WT; 7 days culture then 3 days in assay plate
Method: as §3, §4, §5, §6, §7, §8

[7] = test system: SU-DHL-2; format: cell-based; details: SU-DHL-2, DLBCL (non-GCB), EZH2 WT; 7 days culture then 3 days in assay plate
Method: as §3, §4, §5, §6, §7, §8

[8] = test system: DB; format: cell-based; details: DLBCL (GCB), EZH2 MT (Y641N), 7 days culture then 3 days in assay plate
Method: as §3, §4, §5, §6, §7, §8

[9] = test system: OCI-LY7; format: cell-based; details: OCI-LY7, DLBCL (GCB), EZH2 WT; 7 days culture then 3 days in assay plate
Method: as §3, §4, §5, §6, §7, §8

[10] = test system: JeKo-1; format: cell-based; details: JeKo-1, MCL, EZH2 WT; 7 days culture then 3 days in assay plate
Method: as §3, §4, §5, §6, §7, §8

[11] = test system: OCI-AML2; format: cell-based; details: OCI-AML2, AML, MLL-AF6, DNMT3Amt, FLT3-ITD; 7 days culture then 3 days in assay plate
Method: as §3, §4, §5, §6, §7, §8

[12] = test system: GRANTA-519; format: cell-based; details: GRANTA-519, MCL, EZH2 WT; 7 days culture then 3 days in assay plate
Method: as §3, §4, §5, §6, §7, §8

[13] = test system: MOLM13; format: cell-based; details: MOLM13, AML, MLL-AF9, FLT3-ITD; 7 days culture then 3 days in assay plate
Method: as §3, §4, §5, §6, §7, §8

[14] = test system: OCI-LY19; format: cell-based; details: OCI-LY19, DLBCL (GCB), EZH2 WT; 7 days culture then 3 days in assay plate
Method: as §3, §4, §5, §6, §7, §8

[15] = test system: OCI-AML5; format: cell-based; details: OCI-AML5, AML; 7 days culture then 3 days in assay plate
Method: as §3, §4, §5, §6, §7, §8

[16] = test system: OCI-LY3; format: cell-based; details: OCI-LY3, DLBCL (non-GCB), EZH2 WT; 7 days culture then 3 days in assay plate
Method: as §3, §4, §5, §6, §7, §8

SMILES: Cc1cc(C)c(CNC(=O)c2cc(Cl)c3c(c2C)O[C@@](C)([C@H]2CC[C@H](N(C)C)CC2)O3)c(=O)[nH]1 [Compound A, (2R)-7-chloro-2-[trans-4-(dimethylamino)cyclohexyl]-N-[(4,6-dimethyl-2-oxo-1,2-dihydropyridin-3-yl)methyl]-2,4-dimethyl-1,3-benzodioxol-5-carboxamide p-toluenesulfonate]
- Cpd A GI100 (100% cell growth inhibitory concentration) [1]: >100 nM
- Cpd A GI100 (100% cell growth inhibitory concentration) [2]: 5.7 nM
- Cpd A GI100 (100% cell growth inhibitory concentration) [3]: >1000 nM
- Cpd A GI100 (100% cell growth inhibitory concentration) [4]: 170 nM
- Cpd A GI100 (100% cell growth inhibitory concentration) [5]: >1000 nM
- Cpd A GI100 (100% cell growth inhibitory concentration) [6]: 17 nM
- Cpd A GI100 (100% cell growth inhibitory concentration) [7]: 4.9 nM
- Cpd A GI100 (100% cell growth inhibitory concentration) [8]: >100 nM
- Cpd A GI100 (100% cell growth inhibitory concentration) [9]: 90 nM
- Cpd A GI100 (100% cell growth inhibitory concentration) [10]: 8.1 nM
- Cpd A GI100 (100% cell growth inhibitory concentration) [11]: 647 nM
- Cpd A GI100 (100% cell growth inhibitory concentration) [12]: 53 nM
- Cpd A GI100 (100% cell growth inhibitory concentration) [13]: 97 nM
- Cpd A GI100 (100% cell growth inhibitory concentration) [14]: >1000 nM
- Cpd A GI100 (100% cell growth inhibitory concentration) [15]: >5 µM
- Cpd A GI100 (100% cell growth inhibitory concentration) [16]: >1000 nM
